According to patent publication US9499488B2, “Vitamin D receptor agonists and uses thereof” (Beth Israel Deaconess Medical Center, Inc., priority 2011, dated 2016):

Legend:
[1] = target: T1, VDR (GAL4-DBD/VDR-LBD fusion protein in HEK293T cells) (Homo sapiens, UniProt P11473); assay: GeneBLAzer cell-based VDR assay (VDR-UAS-bla HEK 293T, beta-lactamase reporter); details: for Activity: agonist or antagonist at VDR, compounds of formula (I) tested as mixture of diastereomers; for VDR agonistic activity (degree, in words): high throughput screen of vitamin D receptor activity
T1 construct: the targeting construct (GAL4-DBD/VDR-LBD) fusion protein engineered in a HEK293T cell line containing 7XUAS-bla; host or cells: GeneBLAzer VDR-UAS-bla HEK 293T cells
T1 sequence (P11473 127-423 limits assumed): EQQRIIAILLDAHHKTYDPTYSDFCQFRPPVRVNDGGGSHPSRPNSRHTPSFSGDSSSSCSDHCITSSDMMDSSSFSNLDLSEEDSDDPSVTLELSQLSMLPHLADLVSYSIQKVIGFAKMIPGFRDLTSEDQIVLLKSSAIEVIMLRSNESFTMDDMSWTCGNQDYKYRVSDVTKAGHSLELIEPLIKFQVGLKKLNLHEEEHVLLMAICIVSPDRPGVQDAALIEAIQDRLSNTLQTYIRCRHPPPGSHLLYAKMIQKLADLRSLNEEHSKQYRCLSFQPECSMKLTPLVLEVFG
From the text: High throughput assay validation of the top ranked unique molecules from each of three PDB conformations on the basis of docking score (glide score+ionization state penalty). From this priority list 200 of the best ranked molecules, following ADMET evaluation, were purchased and subjected to binding assays. The compounds of formula (I) were obtained and tested as a mixture of diastereomers.
To determine which compounds identified by virtual screens are actually capable of regulating the transcriptional profile of VDR, we performed GeneBLAzer® Cell-Based VDR Assay (kit was bought from Invitrogen and assay performed as per instructions). Upon binding of a VDR agonist to the targeting construct (GAL4-DBD/VDR-LBD) fusion protein engineered in a HEK293T cell line containing 7XUAS-bla, a transcriptional cascade is initiated that produces β-lactamase (BLA). In the presence of the BLA LiveBLAzer™ substrate, cells expressing BLA will fluoresce blue (460 nm), while those not expressing BLA will fluoresce green (530 nm); higher […] ratio indicating the activation of VDR, whereas in presence of calcitriol (potent agonist) diminishing of this ratio indicates an antagonist behavior of the ligand. The agonist and antagonist abilities of CADD-selected compounds were determined in six-point concentration profile and compared with vehicle.
GeneBLAzer® VDR-UAS-bla HEK 293T cells were purchased from Invitrogen (Cat# K1700). The cells were cultured in growth medium in a humidified (37° C./5% CO2) incubator following the manufacture's instruction. Test compounds (ChemBridge, San Diego, Calif.) and Calcitriol (1α,25-Dihydroxyvitamin D3, Sigma) were dissolved in 100% DMSO(Sigma) at 1000-fold stock concentration and stored at −20° C., which were diluted in assay medium immediately prior to use. LiverBLAzer-FRET B/G loading kit was purchased from Invitrogen.
The GeneBLAzer® VDR-UAS-bla HEK 293T cell-based assay was used to screen 200 compounds for activity at the vitamin D receptor. The assay was run in triplicate following the manufacture's instruction. Briefly, 2×10^4 cells in 32 μl assay medium were added to each well of a 384-well black-wall assay plate (Corning Incorporated, Cat#3712). To each well was added 8 al of compound solution diluted in assay medium, the cells were incubated in a humidified (37° C./5% CO2) incubator for 5 hours. The cell-free wells (containing 32 μl assay medium only) and unstimulated cell wells were treated in parallel with the same concentration of DMSO in assay medium, which were used as background controls and blank controls, respectively. Calcitriol was used as a positive control. To each well was added 8 μl of LiverBLAzer-FRET B/G substrate mixture. The plate was covered with plate sealer and incubated at room temperature for 2 hours in the dark. Fluorescence emission was measured on SpectraMax plate reader at 460 nm and 530 nm with excitation set to 409 nm. After subtraction of background, the average value at 460 nm was divided by the average value at 530 nm to obtain the 460/530 ratio.

[2] = Calcemic effects: serum ionized calcium in 1α-hydroxylase knock out mice; type: in vivo; details: 1α-OH KO mice; for increase in serum calcium level compared to the vehicle, long term: 0.6 μg/kg for one week (three administrations); for increase in serum calcium level compared to the vehicle, short term: 24 hours after administration, 0.60 and 3.0 μg/kg doses
Protocol: We performed short-term (24 hours) and long-term (7 days) in vivo experiments comparing the calcemic effect of compound 10 (aka VDRA) to an equivalent dose of calcitriol.
For this study, we used 1α-hydroxylase (1α-OH) knock out (KO) mice, which lack 1α-OH, an enzyme that converts 25(OH)VitD3 to the hormonally active form, 1,25-dihydroxyvitamin D3 (1,25(OH)2VitD3) or calcitriol. These mice are designed to have a low vitamin D level at baseline and are hypocalcemic.
For the short term experiment, we administered 0.6 μg/kg (therapeutic dose) and 3 μg/kg (supratherapeutic dose) of vehicle, calcitriol or compound 10, and then measured serum calcium level 24 hours after administration.
For the long-term experiment, we administered 0.6 μg/kg of vehicle, calcitriol or compound 10 for one week. We administered the drugs on Wednesday, Friday, and Monday, and measured serum calcium level on the following Tuesday.
Serum ionized calcium levels were measured using clinical grade iSTAT system (Abbott laboratories).

[3] = Phenylephrine (PE) induced cardiac hypertrophy in mice; type: in vivo; details: PE 30 mg/kg/day via osmotic pump 7 days; compound 60 ng/kg 3×/week intraperitoneally
Protocol: FIGS. 5A-5C are bar graphs depicting the anti-hypertrophic potential of compound 10 (aka VDRA) in phenylephrine (PE) induced cardiac hypertrophy in mice (see Example 6). […] Mice were infused with PE (30 mg/kg/day) via osmotic pump for 7 days. In FIGS. 5A-5C (i) Con=control group with the same amount of saline infusion by osmotic pump; (ii) Vehicle or VDRA ([…]) were injected 3×/week intraperitoneally; (iii) total volume injected=50 μL/animal/injection; (iv) *=p<0.05 vs Control; (v) **=p<0.05 vs Vehicle; and (vi) N=4.
The anti-hypertrophic potential of compound 10 (aka VDRA) in phenylephrine (PE) induced cardiac hypertrophy in mice was evaluated in vivo. WT mice were infused with phenylephrine (PE) (30 mg/kg/day) via osmotic pump for 7 days. After 7 days, the mice were sacrificed, organ weighed, and hearts were obtained for mRNA processing. Vehicle or compound 10 (60 ng/kg) were injected 3×/week intraperitoneally (total volume injected=50 μL/animal/injection).

[4] = Inhibition of hyperparathyroidism: serum PTH in 1α-hydroxylase knock out mice; type: in vivo; details: 0.6 μg/kg three times a week; 1α-OH KO mice; serum PTH ELISA
From the text: We performed long-term (7 days) in vivo experiments comparing the parathyroid hormone (PTH) levels following administration of compound 10 (aka VDRA) to an equivalent dose of paricalcitol (PC), a VDR agonist used to treat secondary hyperparathyroidism.
For this study, we used 1α-hydroxylase (1α-OH) knock out (KO) mice, which lack 1α-OH, an enzyme that converts 25(OH)VitD3 to the hormonally active form, 1,25-dihydroxyvitamin D3 (1,25(OH)2VitD3). These mice are designed to have a low vitamin D level at baseline and are hypocalcemic.
We administered 0.6 μg/kg of compound 10 or paricalcitol three times a week (Mon, Wed, Fri) for three weeks. Serum PTH level was measured using a PTH (intact, mouse) ELISA immunoassay (Alpco, Salem, Mass.).

[5] = system: adult rat cardiomyocytes (ARCMs); assay: Phenylephrine-induced hypertrophy in adult rat cardiomyocytes in vitro (ANP level); type: cell-based; details: pre-treated 24 hours, then PE (100 μM) for 48 hours
Protocol: We used adult rat cardiomyocytes (ARCMs) in these studies because heart failure is predominantly a disease of the adult heart. ARCM cultures were prepared from the hearts of female Sprague-Dawley rats by enzymatic dissociation using 0.3% collagenase. Each heart yields about 3-4×10^6 viable ventricular cardiomyocytes. Freshly isolated adult cardiomyocyte cultures contain >90% rod-shaped myocytes and less than 1% of the cells are non-myocytes. The cells were used within 24 hours of plating.
We examined how the response of cardiomyocytes to specific hypertrophic stimulus, phenylephrine (PE) is modulated by pretreatment with compound 10 as compared to known activated vitamin D analog, paricalcitol (PC). In this experiment, ARCM was pre-treated with vehicle, compound 10 (different doses) or paricalcitol ([…]) for 24 hours. The cells were then exposed to PE (100 μM) or vehicle for 48 hours. After exposing the cells to hypertrophic stimulation for 48 hours, they were collected and analyzed for several well-established parameters of cardiac hypertrophy, such as tissue atrial natriuretic peptide (ANP) level.

| Compound | Activity [1] | also measured |
| --- | --- | --- |
| CCOc1cc(C2C(C(=O)OCCSCC)=C(C)NC3=C2C(=O)CC(c2ccc(OC)cc2)C3)ccc1O (stereo not drawn) [Compound 7] | Agonist | – |
| CCc1ccc(C2C(C(=O)OCCOc3ccccc3)=C(C)NC3=C2C(=O)CC(c2ccc(OC)cc2)C3)cc1 (stereo not drawn) [Compound 5] | Agonist | – |
| CCSCCOC(=O)C1=C(C)NC2=C(C(=O)CC(c3ccc(OC)cc3)C2)C1c1ccccc1F (stereo not drawn) [Compound 13] | Agonist | – |
| C=C1/C(=C\C=C2/CCC[C@]3(C)[C@@H]([C@H](C)CCCC(C)(C)O)CC[C@@H]23)C[C@@H](O)C[C@@H]1O [calcitriol, 1α,25-Dihydroxyvitamin D3, reference compound] | – | increase in serum calcium level compared to the vehicle, long term [2]: about 45%; increase in serum calcium level compared to the vehicle, short term [2]: did not show significant increase |
| Cc1cccc(OCC(=O)Nc2ccc(S(=O)(=O)Nc3c(C)cc(C)cc3C)cc2)c1 [Compound 20] | Agonist | – |
| COc1ccc(C2CC(=O)C3=C(C2)NC(C)=C(C(=O)OCCOc2ccccc2)C3c2ccccc2)cc1 (stereo not drawn) [Compound 12] | Agonist | – |
| COCCOC(=O)C1=C(C)NC2=C(C(=O)CC(c3ccc(Cl)cc3)C2)C1c1ccc(C)cc1 (stereo not drawn) [Compound 14] | Agonist | – |
| COCCOC(=O)C1=C(C)NC2=C(C(=O)CC(c3ccc(Cl)cc3)C2)C1c1ccc(Br)cc1 (stereo not drawn) [Compound 8] | Agonist | – |
| CCSCCOC(=O)C1=C(C)NC2=C(C(=O)CC(c3ccc(Cl)cc3)C2)C1c1cccc(OC)c1 (stereo not drawn) [Compound 10] | Agonist | increase in serum calcium level compared to the vehicle, long term [2]: did not show any increase; increase in serum calcium level compared to the vehicle, short term [2]: did not show significant increase; PE-induced ANF (atrial natriuretic factor) activation in left ventricular tissue (mRNA) [3]: effectively suppressed; PE-induced heart weight/body weight (HW/BW) ratio [3]: effectively blocked; PE-induced lung weight/BW (LW/BW) ratio [3]: effectively blocked; PTH levels [4]: significantly reduced; anti-hypertrophic effect (ANP level) [5]: significant anti-hypertrophic effect |
| CCSCCOC(=O)C1=C(C)NC2=C(C(=O)CC(c3ccc(Cl)cc3)C2)C1c1ccccc1F (stereo not drawn) [Compound 11] | Agonist | – |
| CCSCCOC(=O)C1=C(C)NC2=C(C(=O)CC(c3ccccc3)C2)C1c1ccccc1 (stereo not drawn) [Compound 1] | Agonist | VDR agonistic activity (degree, in words) [1]: highest degree of agonistic activity |
| CCSCCOC(=O)C1=C(C)NC2=C(C(=O)CC(c3ccccc3OC)C2)C1c1ccccc1F (stereo not drawn) [Compound 6] | Agonist | – |
| COc1ccc(C2C(C(=O)OCCOc3ccccc3)=C(C)NC3=C2C(=O)CC(c2ccccc2)C3)cc1O (stereo not drawn) [Compound 3] | Agonist | – |
| CCOC(=O)C1=C(C)NC2=C(C(=O)CC(c3ccc(Cl)cc3)C2)C1c1ccc(F)cc1 (stereo not drawn) [Compound 2] | Agonist | – |
| CCOC(=O)C1=C(C)NC2=C(C(=O)CC(c3ccc(OC)cc3)C2)C1c1cccc(O)c1 (stereo not drawn) [Compound 4] | Antagonist | – |
| C[C@H](/C=C/[C@H](C)C(C)(C)O)[C@H]1CC[C@H]2/C(=C/C=C3C[C@@H](O)C[C@H](O)C3)CCC[C@]12C [paricalcitol, reference compound] | – | PTH levels [4]: significantly reduced |
| CCOC(=O)C1=C(C)NC2=C(C(=O)CC(c3ccc(OC)cc3)C2)C1c1ccc(O)cc1 (stereo not drawn) [Compound 9] | Antagonist | – |
| CCSCCOC(=O)C1=C(C)NC2=C(C(=O)CC(c3ccc(Cl)cc3)C2)C1c1ccccc1OC (stereo not drawn) [Compound 15] | Agonist | – |

Continued, in another order:

| Activity [1] | Compound | also measured |
| --- | --- | --- |
| Agonist | Cc1cc(C)c(NS(=O)(=O)c2ccc(NC(=O)COc3ccc(Cl)cc3)cc2)c(C)c1 [Compound 19] | – |
| Agonist | Cc1ccc(OCC(=O)Nc2ccc(S(=O)(=O)Nc3c(C)cc(C)cc3C)cc2)cc1 [Compound 18] | VDR agonistic activity (degree, in words) [1]: modest agonist activity |
| Antagonist | COc1ccc(NS(=O)(=O)c2ccc(NC(=O)COc3ccccc3C)cc2)cc1 [Compound 24] | – |
| Antagonist | Cc1cccc(OCC(=O)Nc2ccc(S(=O)(=O)Nc3ccc(C)cc3C)cc2)c1 [Compound 23] | – |
| Agonist | CCSCCOC(=O)C1=C(C)NC2=C(C(=O)CC(c3ccc(OC)cc3)C2)C1c1ccccc1OC (stereo not drawn) [Compound 17] | – |
| Agonist | CCOCCOC(=O)C1=C(C)NC2=C(C(=O)CC(c3ccc(Cl)cc3)C2)C1c1ccc(F)cc1 (stereo not drawn) [Compound 16] | – |
| Antagonist | CCc1ccc(OCC(=O)Nc2ccc(S(=O)(=O)Nc3cc(C)cc(C)c3)cc2)cc1 [Compound 21] | – |
| Antagonist | Cc1cc(C)c(NS(=O)(=O)c2ccc(NC(=O)COc3ccc(Cl)cc3Cl)cc2)c(C)c1 [Compound 22] | – |
